Measured values reported in patent publication US7960393B2, “Pyrimidine derivatives useful for the treatment of diseases mediated by CRTH2” (Actimis Pharmaceuticals, Inc., priority 2002, dated 2011).

Assays:
[1] = target: T1, human CRTH2 (Homo sapiens, UniProt Q9Y5Y4); test: Measurement of Ca2+ mobilization in the human CRTH2-transfected L1.2 cell line (Assay 1); assay type: cell-based; details: PGD2-induced Ca2+ mobilization in CRTH2-transfected L1.2 cells; compounds as yielded by solid phase synthesis, purity about 40 to 90%; read-out: Activity class
T1 construct: expressed in transfected cells; host or cells: L1.2 cells, pEAK expression vector, puromycin-selected
T1 sequence (Q9Y5Y4 1-395): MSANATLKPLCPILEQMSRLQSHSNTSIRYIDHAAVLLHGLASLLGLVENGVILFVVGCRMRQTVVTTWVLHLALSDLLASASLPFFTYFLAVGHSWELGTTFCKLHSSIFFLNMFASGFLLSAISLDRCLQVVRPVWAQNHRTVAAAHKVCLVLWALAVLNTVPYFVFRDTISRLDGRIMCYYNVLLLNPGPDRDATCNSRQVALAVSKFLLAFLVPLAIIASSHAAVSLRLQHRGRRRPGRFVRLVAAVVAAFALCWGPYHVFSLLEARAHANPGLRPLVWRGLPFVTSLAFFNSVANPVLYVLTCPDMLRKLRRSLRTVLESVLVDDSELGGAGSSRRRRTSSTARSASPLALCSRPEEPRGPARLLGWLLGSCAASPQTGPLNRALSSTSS
Summary of the method: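 Human CRTH2 was stably expressed in L1.2 cells (puromycin-selected) loaded with Fluo-3AM (1 μM final) for 60 min at room temperature. Buffer was 20 mM HEPES pH 7.6, 0.1% BSA, 1 mM probenecid in Hanks'. Cells (2×10^5/well) got compound for 5 min at RT, with fluorescence at 480 nm. IC50 bins: A ≤10 nM, B ≤100 nM, C ≤500 nM, D above; samples were solid-phase products of about 40–90% purity.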

[2] = target: T1, human CRTH2; test: Human CRTH2 receptor binding assay (Assay 2); details: binding to puromycin-resistant human CRTH2 L1.2 transfectants
Procedure: Human CRTH2 cDNA was amplified from human eosinophil cDNA with gene specific primers containing restriction sites for cloning into pEAK vector (Edge Bio Systems). The human CRTH2 cDNA was cloned into the mammalian expression vector pEAK. This expression plasmid (40 μg) was transfected into L1.2 cells, at a cell density of 1×10^7 cells/500 μl, by using electroporation apparatus (Gene Pulser II, BioRad) at 250V/1,000 μF. One day after the transfection, puromycin (1 μg/ml, Sigma) was added into the cell culture plates. Two weeks after the transfection, grown cells were picked up for further growth.
[Human CRTH2 Receptor Binding Assay] (Assay 2)
CRTH2 transfectants were washed once with PBS and resuspended in binding buffer (50 mM Tris-HCl, pH7.4, 40 mM MgCl2, 0.1% BSA, 0.1% NaN3). 100 μl of cell suspension (2×10^5 cells), [^3H]-labeled PGD2, and various concentrations of test compound were then mixed in a 96-well U-bottom polypropylene plate and incubated for […] at room temperature to allow binding to occur. […] Scintillant was added to the filtration plate, and radioactivity remaining on the filter was measured by TopCount (Packard), a scintillation counter. Non-specific binding was determined by incubating the cell suspension and [^3H]-labeled PGD2 in the presence of 1 μM of unlabeled PGD2.

SMILES	melting point	IC50 [1]	Kd [2]
COCc1nc(Cc2ccc(NC(=O)c3ccc4ccccc4c3)cc2)nc(N(C)C)c1CC(=O)O [Example 8-6]	128 to 131 °C	< 0.01 µM	–
CN(CC(=O)NC1CCCC1)c1nc(Cc2ccc(NC(=O)c3ccco3)cc2)nc(Cl)c1CC(=O)O [Example 1-11]	> 119 °C	0.1 to 0.5 µM	–
CN(CC(=O)NC1CCCC1)c1nc(Cc2ccc(NC(=O)Cc3ccc4c(c3)OCO4)cc2)nc(Cl)c1CC(=O)O [Example 1-29]	> 120 °C	0.1 to 0.5 µM	–
COc1ccccc1/C=C/C(=O)Nc1ccc(Cc2nc(N(C)C)c(CC(=O)O)c(N3CCOCC3)n2)cc1 [Example 7-27]	125 to 128 °C	< 0.01 µM	–
CN(C)c1nc(Cc2ccc(NC(=O)c3ccc4ccccc4n3)cc2)nc(Cl)c1CC(=O)O [Example 1-32]	135 to 142 °C	< 0.01 µM	–
CN(C)c1nc(Cc2ccc(NC(=O)/C=C/c3ccc(Cl)cc3)cc2)nc(Cl)c1CC(=O)O [Example 1-41]	117 °C	< 0.01 µM	–
CN(C)c1nc(Cc2ccc(NC(=O)C3CCC(C(C)(C)C)CC3)cc2)nc(Cl)c1CC(=O)O (centres unmarked) [Example 1-51]	104 °C	< 0.01 µM	–
O=C(O)Cc1c(Cl)nc(Cc2ccc(NC(=O)/C=C/c3ccc(Cl)cc3)cc2)nc1N1CCCC1 [Example 1-65]	188 to 190 °C	< 0.01 µM	–
CN(C)c1nc(Cc2ccc(NC(=O)c3ccc(C(F)(F)F)cc3)cc2)nc(Cl)c1CC(=O)O [Example 1-39]	> 150 °C	< 0.01 µM	–
CC(c1ccc(NC(=O)c2ccc(C(F)(F)F)cc2)cc1)c1ncc(CC(=O)O)c(N(C)C)n1 (centres unmarked) [Example 2-22]	151 to 154 °C	< 0.01 µM	–
COc1ccc(C(=O)Nc2ccc(Cc3nc(Cl)c(CC(=O)O)c(N4CCCC4)n3)cc2)cc1[N+](=O)[O-] [Example 1-58]	118 °C	< 0.01 µM	–
N=C(N)Nc1ccc(C(=O)Nc2ccc(Cc3nc(Cl)c(CC(=O)O)c(N4CCCC4)n3)cc2)cc1 [Example 1-52]	176 °C	> 0.5 µM	–
CN(C)c1nc(Cc2ccc(NC(=O)COc3ccccc3)cc2)nc(N2CCOCC2)c1CC(=O)O [Example 7-26]	172 to 175 °C	> 0.5 µM	–
CC(=O)Nc1ccc(C(=O)Nc2ccc(Cc3nc(Cl)c(CC(=O)O)c(N4CCCC4)n3)cc2)cc1 [Example 1-54]	189 °C	0.01 to 0.1 µM	–
CN(C)c1nc(Cc2ccc(NC(=O)/C=C/c3ccc(C(F)(F)F)cc3)cc2)nc(Cl)c1CC(=O)O [Example 1-68]	> 199 °C	< 0.01 µM	–
CN(C)c1nc(Cc2ccc(NC(=O)c3cccc(Cl)c3)cc2)ncc1CC(=O)O [Example 2-15]	111 to 113 °C	0.01 to 0.1 µM	–
O=C(O)Cc1cnc(Cc2ccc(NC(=O)c3ccc(F)cc3)cc2)nc1N1CCCC1 [Example 2-29]	143 to 145 °C	< 0.01 µM	–
O=C(O)Cc1c(Cl)nc(Cc2ccc(NC(=O)c3ccc(Cl)cc3)cc2)nc1N1CCCC1 [Example 1-63]	173 °C	< 0.01 µM	–
CN(C)c1nc(Cc2ccc(NC(=O)c3ccc(-c4ccccc4)cc3)cc2)nc(N2CCCC2)c1CC(=O)O [Example 7-16]	224 to 226 °C	0.01 to 0.1 µM	–
CN(C)c1nc(Cc2ccc(NC(=O)c3ccc(Cl)cc3)cc2)nc(Cl)c1CC(=O)O [Example 1-35]	> 166 °C	< 0.01 µM	–
CN(C)c1nc(Cc2ccc(NC(=O)c3ccccc3-c3ccccc3)cc2)nc(N2CCCC2)c1CC(=O)O [Example 7-14]	132 to 134 °C	> 0.5 µM	–

SMILES	melting point	IC50 [1]	Kd [2]
O=C(O)Cc1cnc(Cc2ccc(NC(=O)c3ccc(Cl)cc3)cc2)nc1N1CCCC1 [Example 2-28]	151 to 153 °C	< 0.01 µM	–
CCCC(=O)Nc1ccc(Cc2ncc(CC(=O)O)c(N3CCCC3)n2)cc1 [Example 2-36]	130 to 133 °C	0.1 to 0.5 µM	–
CN(C)c1nc(Cc2ccc(NC(=O)[C@@H]3CCc4ccccc4O3)cc2)nc(Cl)c1CC(=O)O [Example 1-67]	> 120 °C	< 0.01 µM	–
CN(C)c1nc(Cc2ccc(NC(=O)c3ccc(Cl)c(Cl)c3)cc2)nc(N2CCCC2)c1CC(=O)O [Example 7-13]	150 to 152 °C	0.1 to 0.5 µM	–
CN(CC(=O)NC1CCCC1)c1nc(Cc2ccc(NC(=O)c3cc4ccccc4[nH]3)cc2)nc(Cl)c1CC(=O)O [Example 1-26]	146 °C	< 0.01 µM	–
CN(CC(=O)NC1CCCC1)c1nc(Cc2ccc(NC(=O)Cc3ccc(Oc4ccccc4)cc3)cc2)nc(Cl)c1CC(=O)O [Example 1-31]	> 123 °C	0.01 to 0.1 µM	–
CN(C)c1nc(Cc2ccc(NC(=O)c3ccc4ccccc4n3)cc2)ncc1CC(=O)O [Example 2-9]	136 to 144 °C	0.01 to 0.1 µM	–
CN(C)c1nc(Cc2ccc(NC(=O)c3ccc(Cl)cc3)cc2)nc(N2CCOCC2)c1CC(=O)O [Example 7-18]	216 to 218 °C (dec.)	0.1 to 0.5 µM	–
CN(CC(=O)NC1CCCC1)c1nc(Cc2ccc(NC(=O)c3ccc(C#N)cc3)cc2)nc(Cl)c1CC(=O)O [Example 1-27]	101 °C	< 0.01 µM	–
CN(C)c1nc(Cc2ccc(NC(=O)/C=C/c3ccc(Cl)cc3)cc2)ncc1CC(=O)O [Example 2-11]	136 to 140 °C	< 0.01 µM	–
CC(c1ccc(NC(=O)c2ccc(Cl)cc2)cc1)c1ncc(CC(=O)O)c(N(C)C)n1 (centres unmarked) [Example 2-25]	131 to 134 °C	< 0.01 µM	–
CN(C)c1nc(Cc2ccc(NC(=O)/C=C/c3ccc(Cl)cc3)cc2)nc(N(C)C)c1CC(=O)O [Example 7-8]	162 °C	< 0.01 µM	–
CN(C)c1nc(Cc2ccc(NC(=O)c3cc(Cl)cc(Cl)c3)cc2)nc(Cl)c1CC(=O)O [Example 1-46]	> 99 °C	< 0.01 µM	–
CCCCC[C@H](O)/C=C/[C@H]1C(=O)C[C@H](O)[C@@H]1C/C=C\CCCC(=O)O [[^3H]-labeled PGD2]	–	–	0.0063 µM
O=C(O)Cc1cnc(Cc2ccc(NC(=O)c3ccc4ccccc4n3)cc2)nc1N1CCCC1 [Example 2-27]	221 to 224 °C (dec.)	< 0.01 µM	–
CN(C)c1nc(Cc2ccc(NC(=O)OCc3ccccc3)cc2)nc(N(C)C)c1CC(=O)O [Example 9-7]	100 °C	< 0.01 µM	–
CN(C)c1nc(Cc2ccc(NC(=O)OCc3ccccc3)cc2)nc(Cl)c1CC(=O)O [Example 9-3]	88 to 91 °C	< 0.01 µM	–
CN(CC(=O)NC1CCCC1)c1nc(Cc2ccc(NC(=O)Cc3cccc(Oc4ccccc4)c3)cc2)nc(Cl)c1CC(=O)O [Example 1-30]	> 118 °C	< 0.01 µM	–
CN(CC(=O)N1CCCC1)c1nc(Cc2ccc(NC(=O)c3ccc4ccccc4c3)cc2)nc(Cl)c1CC(=O)O [Example 1-3]	177 °C	< 0.01 µM	–
CN(C)c1nc(Cc2ccc(NC(=O)OCc3ccccc3)cc2)ncc1CC(=O)O [Example 9-1, [2-(4-{[(Benzyloxy)carbonyl]amino}benzyl)-4-(dimethylamino)pyrimidin-5-yl]acetic acid]	101 to 104 °C	0.01 to 0.1 µM	–
CN(C)c1nc(Cc2ccccc2NC(=O)c2ccc3ccccc3c2)nc(Cl)c1CC(=O)O [Example 1-50]	295 °C	> 0.5 µM	–
